Measured values published in patent US20240238299A1, “USE OF PYRROLOPYRIMIDINE COMPOUND” (GUANGZHOU JOYO PHARMATECH CO., LTD, priority 2021, published 2024).

Test system: MOG35-55-induced experimental autoimmune encephalomyelitis (EAE) mouse model
Experiment: MOG35-55-induced EAE mouse model, clinical scoring and incidence
Type: in vivo, C57BL/6 mice
Conditions: for inhibition rate of AUC for clinical scoring: 14 days, vs vehicle control

CN(c1ncnc2[nH]ccc12)[C@@H]1CCc2cc(C#N)nn2C1 [Compound I]
0.00: EAE clinical scoring, Mean (G5, 3 mg/kg BID oral, day 0) | EAE clinical scoring, Mean (G5, 3 mg/kg BID oral, day 2) | EAE clinical scoring, Mean (G5, 3 mg/kg BID oral, day 4) | EAE clinical scoring, Mean (G5, 3 mg/kg BID oral, day 7) | EAE clinical scoring, Mean (G5, 3 mg/kg BID oral, day 9) | EAE clinical scoring, Mean (G5, 3 mg/kg BID oral, day 11) | EAE clinical scoring, Mean (G5, 3 mg/kg BID oral, day 12) | EAE clinical scoring, Mean (G6, 10 mg/kg BID oral, day 0) | EAE clinical scoring, Mean (G6, 10 mg/kg BID oral, day 2) | EAE clinical scoring, Mean (G6, 10 mg/kg BID oral, day 4) | EAE clinical scoring, Mean (G6, 10 mg/kg BID oral, day 7) | EAE clinical scoring, Mean (G6, 10 mg/kg BID oral, day 9) | EAE clinical scoring, Mean (G6, 10 mg/kg BID oral, day 11) | EAE clinical scoring, Mean (G6, 10 mg/kg BID oral, day 12) | EAE clinical scoring, Mean (G7, 20 mg/kg BID oral, day 0) | EAE clinical scoring, Mean (G7, 20 mg/kg BID oral, day 2) | EAE clinical scoring, Mean (G7, 20 mg/kg BID oral, day 4) | EAE clinical scoring, Mean (G7, 20 mg/kg BID oral, day 7) | EAE clinical scoring, Mean (G7, 20 mg/kg BID oral, day 9) | EAE clinical scoring, Mean (G7, 20 mg/kg BID oral, day 11) | EAE clinical scoring, Mean (G7, 20 mg/kg BID oral, day 12) | EAE clinical scoring, Mean (G8, 20 mg/kg QD oral, day 0) | EAE clinical scoring, Mean (G8, 20 mg/kg QD oral, day 2) | EAE clinical scoring, Mean (G8, 20 mg/kg QD oral, day 4) | EAE clinical scoring, Mean (G8, 20 mg/kg QD oral, day 7) | EAE clinical scoring, Mean (G8, 20 mg/kg QD oral, day 9) | EAE clinical scoring, Mean (G8, 20 mg/kg QD oral, day 11) | EAE clinical scoring, Mean (G8, 20 mg/kg QD oral, day 12)
1.10: EAE clinical scoring, Mean (G5, 3 mg/kg BID oral, day 21) | EAE clinical scoring, Mean (G5, 3 mg/kg BID oral, day 22) | EAE clinical scoring, Mean (G7, 20 mg/kg BID oral, day 18) | EAE clinical scoring, Mean (G7, 20 mg/kg BID oral, day 19) | EAE clinical scoring, Mean (G8, 20 mg/kg QD oral, day 15) | EAE clinical scoring, Mean (G8, 20 mg/kg QD oral, day 19)
10%: incidence of EAE (G6, 10 mg/kg BID oral, day 20) | incidence of EAE (G7, 20 mg/kg BID oral, day 24) | incidence of EAE (G7, 20 mg/kg BID oral, day 25) | incidence of EAE (G7, 20 mg/kg BID oral, day 26) | incidence of EAE (G7, 20 mg/kg BID oral, day 27)
0.30: EAE clinical scoring, Mean (G6, 10 mg/kg BID oral, day 20) | EAE clinical scoring, Mean (G6, 10 mg/kg BID oral, day 21) | EAE clinical scoring, Mean (G6, 10 mg/kg BID oral, day 22) | EAE clinical scoring, Mean (G6, 10 mg/kg BID oral, day 27) | EAE clinical scoring, Mean (G7, 20 mg/kg BID oral, day 13) | EAE clinical scoring, Mean (G7, 20 mg/kg BID oral, day 24) | EAE clinical scoring, Mean (G7, 20 mg/kg BID oral, day 25) | EAE clinical scoring, Mean (G7, 20 mg/kg BID oral, day 26) | EAE clinical scoring, Mean (G7, 20 mg/kg BID oral, day 27) | EAE clinical scoring, Mean (G8, 20 mg/kg QD oral, day 24) | EAE clinical scoring, Mean (G8, 20 mg/kg QD oral, day 25) | EAE clinical scoring, Mean (G8, 20 mg/kg QD oral, day 26) | EAE clinical scoring, Mean (G8, 20 mg/kg QD oral, day 27)
100%: incidence of EAE (G5, 3 mg/kg BID oral, day 19)
0.20: EAE clinical scoring, Mean (G5, 3 mg/kg BID oral, day 13) | EAE clinical scoring, Mean (G6, 10 mg/kg BID oral, day 13) | EAE clinical scoring, Mean (G8, 20 mg/kg QD oral, day 13)
0.90: EAE clinical scoring, Mean (G5, 3 mg/kg BID oral, day 16) | EAE clinical scoring, Mean (G7, 20 mg/kg BID oral, day 16) | EAE clinical scoring, Mean (G7, 20 mg/kg BID oral, day 20)
0.80: EAE clinical scoring, Mean (G5, 3 mg/kg BID oral, day 24) | EAE clinical scoring, Mean (G5, 3 mg/kg BID oral, day 25) | EAE clinical scoring, Mean (G5, 3 mg/kg BID oral, day 26) | EAE clinical scoring, Mean (G7, 20 mg/kg BID oral, day 15) | EAE clinical scoring, Mean (G7, 20 mg/kg BID oral, day 21) | EAE clinical scoring, Mean (G8, 20 mg/kg QD oral, day 20)
50%: incidence of EAE (G5, 3 mg/kg BID oral, day 24) | incidence of EAE (G5, 3 mg/kg BID oral, day 25) | incidence of EAE (G5, 3 mg/kg BID oral, day 26) | incidence of EAE (G6, 10 mg/kg BID oral, day 15) | incidence of EAE (G6, 10 mg/kg BID oral, day 16) | incidence of EAE (G7, 20 mg/kg BID oral, day 14) | incidence of EAE (G8, 20 mg/kg QD oral, day 14) | incidence of EAE (G8, 20 mg/kg QD oral, day 20) | incidence of EAE (G8, 20 mg/kg QD oral, day 21)
80%: incidence of EAE (G5, 3 mg/kg BID oral, day 17) | incidence of EAE (G7, 20 mg/kg BID oral, day 18) | incidence of EAE (G7, 20 mg/kg BID oral, day 19) | incidence of EAE (G8, 20 mg/kg QD oral, day 17)
1.40: EAE clinical scoring, Mean (G8, 20 mg/kg QD oral, day 17)
0.40: EAE clinical scoring, Mean (G5, 3 mg/kg BID oral, day 14) | EAE clinical scoring, Mean (G6, 10 mg/kg BID oral, day 14) | EAE clinical scoring, Mean (G6, 10 mg/kg BID oral, day 19) | EAE clinical scoring, Mean (G6, 10 mg/kg BID oral, day 23) | EAE clinical scoring, Mean (G6, 10 mg/kg BID oral, day 24) | EAE clinical scoring, Mean (G6, 10 mg/kg BID oral, day 25) | EAE clinical scoring, Mean (G6, 10 mg/kg BID oral, day 26) | EAE clinical scoring, Mean (G8, 20 mg/kg QD oral, day 22) | EAE clinical scoring, Mean (G8, 20 mg/kg QD oral, day 23)
0.50: EAE clinical scoring, Mean (G6, 10 mg/kg BID oral, day 15) | EAE clinical scoring, Mean (G6, 10 mg/kg BID oral, day 17) | EAE clinical scoring, Mean (G7, 20 mg/kg BID oral, day 22) | EAE clinical scoring, Mean (G7, 20 mg/kg BID oral, day 23)
30%: incidence of EAE (G5, 3 mg/kg BID oral, day 27) | incidence of EAE (G6, 10 mg/kg BID oral, day 23) | incidence of EAE (G6, 10 mg/kg BID oral, day 24) | incidence of EAE (G6, 10 mg/kg BID oral, day 25) | incidence of EAE (G6, 10 mg/kg BID oral, day 26) | incidence of EAE (G6, 10 mg/kg BID oral, day 27) | incidence of EAE (G7, 20 mg/kg BID oral, day 13) | incidence of EAE (G7, 20 mg/kg BID oral, day 22) | incidence of EAE (G7, 20 mg/kg BID oral, day 23) | incidence of EAE (G8, 20 mg/kg QD oral, day 24) | incidence of EAE (G8, 20 mg/kg QD oral, day 25) | incidence of EAE (G8, 20 mg/kg QD oral, day 26) | incidence of EAE (G8, 20 mg/kg QD oral, day 27)
0.70: EAE clinical scoring, Mean (G8, 20 mg/kg QD oral, day 21)
3 mg/kg: effective dose starting at (twice daily (BID), oral, EAE clinical symptoms)
77%: inhibition rate of AUC for clinical scoring (10 mg/kg BID oral)
90%: incidence of EAE (G5, 3 mg/kg BID oral, day 18)
0.60: EAE clinical scoring, Mean (G5, 3 mg/kg BID oral, day 15) | EAE clinical scoring, Mean (G5, 3 mg/kg BID oral, day 27) | EAE clinical scoring, Mean (G6, 10 mg/kg BID oral, day 16) | EAE clinical scoring, Mean (G6, 10 mg/kg BID oral, day 18) | EAE clinical scoring, Mean (G7, 20 mg/kg BID oral, day 14) | EAE clinical scoring, Mean (G8, 20 mg/kg QD oral, day 14)
60%: inhibition rate of AUC for clinical scoring (20 mg/kg QD oral) | incidence of EAE (G5, 3 mg/kg BID oral, day 15) | incidence of EAE (G5, 3 mg/kg BID oral, day 21) | incidence of EAE (G5, 3 mg/kg BID oral, day 22) | incidence of EAE (G5, 3 mg/kg BID oral, day 23) | incidence of EAE (G7, 20 mg/kg BID oral, day 15) | incidence of EAE (G7, 20 mg/kg BID oral, day 16) | incidence of EAE (G7, 20 mg/kg BID oral, day 21)
44%: inhibition rate of AUC for clinical scoring (3 mg/kg BID oral)
1.50: EAE clinical scoring, Mean (G5, 3 mg/kg BID oral, day 17)
70%: incidence of EAE (G5, 3 mg/kg BID oral, day 16) | incidence of EAE (G5, 3 mg/kg BID oral, day 20) | incidence of EAE (G7, 20 mg/kg BID oral, day 17) | incidence of EAE (G7, 20 mg/kg BID oral, day 20) | incidence of EAE (G8, 20 mg/kg QD oral, day 15) | incidence of EAE (G8, 20 mg/kg QD oral, day 16) | incidence of EAE (G8, 20 mg/kg QD oral, day 18) | incidence of EAE (G8, 20 mg/kg QD oral, day 19)
0%: incidence of EAE (G5, 3 mg/kg BID oral, day 0) | incidence of EAE (G5, 3 mg/kg BID oral, day 2) | incidence of EAE (G5, 3 mg/kg BID oral, day 4) | incidence of EAE (G5, 3 mg/kg BID oral, day 7) | incidence of EAE (G5, 3 mg/kg BID oral, day 9) | incidence of EAE (G5, 3 mg/kg BID oral, day 11) | incidence of EAE (G5, 3 mg/kg BID oral, day 12) | incidence of EAE (G6, 10 mg/kg BID oral, day 0) | incidence of EAE (G6, 10 mg/kg BID oral, day 2) | incidence of EAE (G6, 10 mg/kg BID oral, day 4) | incidence of EAE (G6, 10 mg/kg BID oral, day 7) | incidence of EAE (G6, 10 mg/kg BID oral, day 9) | incidence of EAE (G6, 10 mg/kg BID oral, day 11) | incidence of EAE (G6, 10 mg/kg BID oral, day 12) | incidence of EAE (G7, 20 mg/kg BID oral, day 0) | incidence of EAE (G7, 20 mg/kg BID oral, day 2) | incidence of EAE (G7, 20 mg/kg BID oral, day 4) | incidence of EAE (G7, 20 mg/kg BID oral, day 7) | incidence of EAE (G7, 20 mg/kg BID oral, day 9) | incidence of EAE (G7, 20 mg/kg BID oral, day 11) | incidence of EAE (G7, 20 mg/kg BID oral, day 12) | incidence of EAE (G8, 20 mg/kg QD oral, day 0) | incidence of EAE (G8, 20 mg/kg QD oral, day 2) | incidence of EAE (G8, 20 mg/kg QD oral, day 4) | incidence of EAE (G8, 20 mg/kg QD oral, day 7) | incidence of EAE (G8, 20 mg/kg QD oral, day 9) | incidence of EAE (G8, 20 mg/kg QD oral, day 11) | incidence of EAE (G8, 20 mg/kg QD oral, day 12)
1.00: EAE clinical scoring, Mean (G5, 3 mg/kg BID oral, day 23) | EAE clinical scoring, Mean (G7, 20 mg/kg BID oral, day 17)
1.30: EAE clinical scoring, Mean (G5, 3 mg/kg BID oral, day 20) | EAE clinical scoring, Mean (G8, 20 mg/kg QD oral, day 16) | EAE clinical scoring, Mean (G8, 20 mg/kg QD oral, day 18)
1.90: EAE clinical scoring, Mean (G5, 3 mg/kg BID oral, day 18) | EAE clinical scoring, Mean (G5, 3 mg/kg BID oral, day 19)
63%: inhibition rate of AUC for clinical scoring (20 mg/kg BID oral)
40%: incidence of EAE (G5, 3 mg/kg BID oral, day 14) | incidence of EAE (G6, 10 mg/kg BID oral, day 14) | incidence of EAE (G6, 10 mg/kg BID oral, day 17) | incidence of EAE (G6, 10 mg/kg BID oral, day 18) | incidence of EAE (G8, 20 mg/kg QD oral, day 22) | incidence of EAE (G8, 20 mg/kg QD oral, day 23)
20%: incidence of EAE (G5, 3 mg/kg BID oral, day 13) | incidence of EAE (G6, 10 mg/kg BID oral, day 13) | incidence of EAE (G6, 10 mg/kg BID oral, day 19) | incidence of EAE (G6, 10 mg/kg BID oral, day 21) | incidence of EAE (G6, 10 mg/kg BID oral, day 22) | incidence of EAE (G8, 20 mg/kg QD oral, day 13)
